Measured values: US10081641B2, “Pesticidally active heterocyclic derivatives with sulphur containing substituents” (Syngenta Participations AG, priority 2014, dated 2018)
Where two headings read alike, the source gives them in different places.

Experiments:
Type in all cases: in vivo
[1] = test system: Spodoptera littoralis (Egyptian Cotton Leaf Worm); experiment: Example B1: Spodoptera littoralis, sprayed cotton leaf discs; details: foliar, 72 h, read-out: control (at least one of mortality, anti-feedant effect, growth inhibition)
Procedure: Example B1: Spodoptera littoralis (Egyptian Cotton Leaf Worm)
Cotton leaf discs were placed on agar in 24-well microtiter plates and sprayed with aqueous test solutions prepared from 10′000 ppm DMSO stock solutions. After drying, the leaf discs were infested with five L1 larvae. The samples were assessed for mortality, anti-feedant effect, and growth inhibition in comparison to untreated samples 3 days after infestation. Control of Spodoptera littoralis by a test sample is when at least one of mortality, anti-feedant effect, and growth inhibition is higher than the untreated sample.

[2] = test system: Plutella xylostella (Diamond Back Moth); experiment: Example B3: Plutella xylostella, artificial diet; details: 120 h, read-out: effect in at least one of the two categories (mortality or growth inhibition)
Procedure: Example B3: Plutella xylostella (Diamond Back Moth)
(§1) 24-well microtiter plates with artificial diet were treated with aqueous test solutions prepared from 10′000 ppm DMSO stock solutions by pipetting. After drying, the plates were infested with L2 larvae (10 to 15 per well). The samples were assessed for mortality and growth inhibition in comparison to untreated samples 5 days after infestation.

[3] = test system: Diabrotica Balteata (Corn Root Worm); experiment: Example B4: Diabrotica balteata, sprayed maize sprouts; details: 96 h, application rate of 200 ppm, L2 larvae, 4 days after infestation, read-out: effect in at least one of the two categories (mortality or growth inhibition)
Procedure: Example B4: Diabrotica Balteata (Corn Root Worm)
as §1, with “Maize sprouts, placed on an agar layer in 24-well” for “24-well”, “plates” for “plates with artificial diet”, “spraying.” for “pipetting.”, “(6” for “(10”, “10” for “15”, “4” for “5”

[4] = test system: Myzus persicae (Green Peach Aphid); experiment: Example B5: Myzus persicae, sprayed sunflower leaf discs; details: foliar, 144 h, application rate of 200 ppm, mixed ages, 6 days after infestation
Procedure: Example B5: Myzus persicae (Green Peach Aphid)
(§2) Sunflower leaf discs were placed on agar in a 24-well microtiter plate and sprayed with aqueous test solutions prepared from 10′000 ppm DMSO stock solutions. After drying, the leaf discs were infested with an aphid population of mixed ages. The samples were assessed for mortality 6 days after infestation.

[5] = test system: Myzus persicae (Green Peach Aphid); experiment: Example B6: Myzus persicae, roots of pea seedlings in test solution; details: 144 h, test rate of 24 ppm, pea seedling roots in test solution, 6 days
Procedure: Example B6: Myzus persicae (Green Peach Aphid)
Roots of pea seedlings infested with an aphid population of mixed ages were placed directly in the aqueous test solutions prepared from 10′000 DMSO stock solutions. The samples were assessed for mortality 6 days after placing seedlings in test solutions.

[6] = test system: Bemisia tabaci (Cotton White Fly); experiment: Example B7: Bemisia tabaci, sprayed cotton leaf discs; details: foliar, 144 h, application rate of 200 ppm, adult white flies, 6 days after incubation
Procedure: Example B7: Bemisia tabaci (Cotton White Fly)
Cotton leaf discs were placed on agar in 24-well microtiter plates and sprayed with aqueous test solutions prepared from 10′000 ppm DMSO stock solutions. After drying the leaf discs were infested with adult white flies. The samples were checked for mortality 6 days after incubation.

[7] = test system: Spodoptera littoralis (Egyptian Cotton Leaf Worm); experiment: Example B2: Spodoptera littoralis, systemic test via lettuce roots in agar; details: 144 h, test rate of 12.5 ppm, uptake via lettuce roots, 6 days after infestation, read-out: effect in at least one of the three categories (mortality, anti-feedancy, or growth inhibition)
Excerpt: Example B2: Spodoptera littoralis (Egyptian Cotton Leaf Worm)
Test compounds were applied by pipette from 10′000 ppm DMSO stock solutions into 24-well plates and mixed with agar. Lettuce seeds were placed on the agar and the multi well plate was closed by another plate which contains also agar. After 7 days the roots have absorbed the compound and the lettuce has grown into the lid plate. The lettuce leafs were now cut off into the lid plate. Spodoptera eggs were pipetted through a plastic stencil on a humid gel blotting paper and the plate closed with it. The samples were assessed for mortality, anti-feedant effect and growth inhibition in comparison to untreated samples 6 days after infestation.

[8] = test system: Euschistus heros (Neotropical Brown Stink Bug); experiment: Example B8: Euschistus heros, sprayed soybean leaf; details: 120 h, application rate of 200 ppm, N-2 nymphs, 5 days after infestation
Procedure: Example B8: Euschistus heros (Neotropical Brown Stink Bug)
Soybean leaf on agar in 24-well microtiter plates were sprayed with aqueous test solutions prepared from 10′000 ppm DMSO stock solutions. After drying the leaf were infested with N-2 nymphs. The samples were assessed for mortality 5 days after infestation.

[9] = test system: Tetranychus urticae (Two-Spotted Spider Mite); experiment: Example B10: Tetranychus urticae, sprayed bean leaf discs; details: foliar, 192 h
Procedure: Example B10: Tetranychus urticae (Two-Spotted Spider Mite)
Bean leaf discs on agar in 24-well microtiter plates were sprayed with aqueous test solutions prepared from 10′000 ppm DMSO stock solutions. After drying the leaf discs were infested with a mite population of mixed ages. The samples were assessed for mortality on mixed population (mobile stages) 8 days after infestation.

[10] = test system: Frankliniella occidentalis (Western Flower Thrips); experiment: Example B12: Frankliniella occidentalis, sprayed sunflower leaf discs; details: foliar, 168 h, application rate of 200 ppm, mixed ages, 7 days after infestation
Procedure: Example B12: Frankliniella occidentalis (Western Flower Thrips)
as §2, with “in” for “in a”, “plates” for “plate”, “[…]” for “10′000 ppm”, “drying” for “drying,”, “a Frankliniella” for “an aphid”, “7” for “6”

[11] = test system: Thrips tabaci (Onion Thrips); experiment: Example B11: Thrips tabaci, sprayed sunflower leaf discs; details: foliar, 144 h, application rate of 200 ppm, mixed ages, 6 days after infestation
Procedure: Example B11: Thrips tabaci (Onion Thrips)
as §2, with “in” for “in a”, “plates” for “plate”, “drying” for “drying,”, “a thrips” for “an aphid”

[12] = application rate of 200 ppm, cotton leaf discs, L1 larvae, 3 days after infestation
[13] = application rate of 200 ppm, artificial diet, L2 larvae, 5 days after infestation

CCS(=O)(=O)c1cc(C#C[Si](C)(C)C)cnc1-c1nc2cc(C(F)(F)F)ncc2n1C [P1, 2-[5-ethylsulfonyl-6-[3-methyl-6-(trifluoromethyl)imidazo[4,5-c]pyridin-2-yl]-3-pyridyl]ethynyl-trimethyl-silane]
≥ 80%: percent control (mortality, anti-feedant effect or growth inhibition) at 200 ppm [1] | percent effect (mortality or growth inhibition) at 200 ppm [2]

C#Cc1cnc(-c2nc3cc(C(F)(F)F)ncc3n2C)c(S(=O)(=O)CC)c1 [P2, 2-(3-ethylsulfonyl-5-ethynyl-2-pyridyl)-3-methyl-6-(trifluoromethyl)imidazo[4,5-c]pyridine]
≥ 80%: percent control (mortality, anti-feedant effect or growth inhibition) at 200 ppm [1, 12] | percent effect (mortality or growth inhibition) at 200 ppm [2, 13]

C=Cc1cnc(-c2nc3cc(C(F)(F)F)ncc3n2C)c(S(=O)(=O)CC)c1 [P3, 2-(3-ethylsulfonyl-5-vinyl-2-pyridyl)-3-methyl-6-(trifluoromethyl)imidazo[4,5-c]pyridine]
≥ 80%: percent control (mortality, anti-feedant effect or growth inhibition) at 200 ppm [1, 12] | percent effect (mortality or growth inhibition) at 200 ppm [2, 13] | percent effect (mortality or growth inhibition) at 200 ppm [3] | mortality at 200 ppm [4] | mortality at 24 ppm [5]

CCS(=O)(=O)c1cc(C#Cc2ccc(Cl)cc2)cnc1-c1nc2cc(C(F)(F)F)ncc2n1C [P4]
≥ 80%: percent control (mortality, anti-feedant effect or growth inhibition) at 200 ppm [1, 12] | percent effect (mortality or growth inhibition) at 200 ppm [2, 13] | percent effect (mortality or growth inhibition) at 200 ppm [3] | mortality at 200 ppm [4]

CCS(=O)(=O)c1cc(/C=C/C2CCCCC2)cnc1-c1nc2cc(C(F)(F)F)ncc2n1C [P5]
≥ 80%: percent effect (mortality or growth inhibition) at 200 ppm [2, 13] | percent effect (mortality or growth inhibition) at 200 ppm [3] | mortality at 200 ppm [6]

C/C=C/c1cnc(-c2nc3cc(C(F)(F)F)ncc3n2C)c(S(=O)(=O)CC)c1 [P6]
≥ 80%: percent control (mortality, anti-feedant effect or growth inhibition) at 200 ppm [1, 12] | percent control (mortality, anti-feedancy or growth inhibition) at 12.5 ppm [7] | percent effect (mortality or growth inhibition) at 200 ppm [2, 13] | percent effect (mortality or growth inhibition) at 200 ppm [3] | mortality at 200 ppm [4] | mortality at 200 ppm [8]

CCS(=O)(=O)c1cc(C2CC2)cnc1-c1nc2cc(C(F)(F)F)ncc2n1C [P7, 2-(5-cyclopropyl-3-ethylsulfonyl-2-pyridyl)-3-methyl-6-(trifluoromethyl)imidazo[4,5-c]pyridine]
≥ 80%: percent control (mortality, anti-feedant effect or growth inhibition) at 200 ppm [1, 12] | percent control (mortality, anti-feedancy or growth inhibition) at 12.5 ppm [7] | percent effect (mortality or growth inhibition) at 200 ppm [2, 13] | percent effect (mortality or growth inhibition) at 200 ppm [3] | mortality at 200 ppm [4] | mortality at 24 ppm [5] | mortality at 200 ppm [8]

CCS(=O)(=O)c1cc(C#Cc2ccc(Cl)cc2)ccc1-c1nc2cc(C(F)(F)F)ncc2n1C [P8]
≥ 80%: percent control (mortality, anti-feedant effect or growth inhibition) at 200 ppm [1, 12] | percent control (mortality, anti-feedancy or growth inhibition) at 12.5 ppm [7] | percent effect (mortality or growth inhibition) at 200 ppm [2, 13] | percent effect (mortality or growth inhibition) at 200 ppm [3] | mortality at 200 ppm [6] | mortality at 200 ppm [8]

CCS(=O)(=O)c1cc(C#CC(F)(F)F)ccc1-c1nc2cc(C(F)(F)F)ncc2n1C [P9]
≥ 80%: percent effect (mortality or growth inhibition) at 200 ppm [3] | mortality at 200 ppm [9]

CCS(=O)(=O)c1cc(/C=C/c2ccc(C(F)(F)F)cc2)ccc1-c1nc2cc(C(F)(F)F)ncc2n1C [P10]
≥ 80%: percent control (mortality, anti-feedant effect or growth inhibition) at 200 ppm [1, 12] | percent effect (mortality or growth inhibition) at 200 ppm [2, 13] | percent effect (mortality or growth inhibition) at 200 ppm [3] | mortality at 200 ppm [8]

CCS(=O)(=O)c1cc(C=C(C)C)cnc1-c1nc2cc(C(F)(F)F)ncc2n1C [P11]
≥ 80%: percent control (mortality, anti-feedant effect or growth inhibition) at 200 ppm [1, 12] | percent effect (mortality or growth inhibition) at 200 ppm [2, 13] | percent effect (mortality or growth inhibition) at 200 ppm [3] | mortality at 200 ppm [4] | mortality at 200 ppm [8]

CCS(=O)(=O)c1cc(C2=CCC(C)(C)CC2)cnc1-c1nc2cc(C(F)(F)F)ncc2n1C [P12]
≥ 80%: percent effect (mortality or growth inhibition) at 200 ppm [2, 13] | mortality at 200 ppm [4] | mortality at 200 ppm [6] | mortality at 200 ppm [8]

C=Cc1ccc(-c2nc3cc(C(F)(F)F)ncc3n2C)c(S(=O)(=O)CC)c1 [P13]
≥ 80%: percent control (mortality, anti-feedant effect or growth inhibition) at 200 ppm [1, 12] | percent control (mortality, anti-feedancy or growth inhibition) at 12.5 ppm [7] | percent effect (mortality or growth inhibition) at 200 ppm [2, 13] | percent effect (mortality or growth inhibition) at 200 ppm [3]

C=C(c1ccc(-c2nc3cc(C(F)(F)F)ncc3n2C)c(S(=O)(=O)CC)c1)C(F)(F)F [P14]
≥ 80%: percent control (mortality, anti-feedant effect or growth inhibition) at 200 ppm [1, 12] | percent effect (mortality or growth inhibition) at 200 ppm [2, 13] | percent effect (mortality or growth inhibition) at 200 ppm [3]

CCS(=O)(=O)c1cc(C2(C#N)CC2)ccc1-c1nc2cc(C(F)(F)F)ncc2n1C [P15, 1-[3-ethylsulfonyl-4-[3-methyl-6-(trifluoromethyl)imidazo[4,5-c]pyridin-2-yl]phenyl]cyclopropanecarbonitrile]
≥ 80%: percent control (mortality, anti-feedant effect or growth inhibition) at 200 ppm [1, 12] | percent control (mortality, anti-feedancy or growth inhibition) at 12.5 ppm [7] | percent effect (mortality or growth inhibition) at 200 ppm [2, 13] | percent effect (mortality or growth inhibition) at 200 ppm [3] | mortality at 200 ppm [4] | mortality at 24 ppm [5] | mortality at 200 ppm [6] | mortality at 200 ppm [8] | mortality at 200 ppm [9] | mortality at 200 ppm [10]

CCS(=O)(=O)c1cc(C2(C#N)CC2)cnc1-c1nc2cc(C(F)(F)F)ncc2n1C [P16]
≥ 80%: percent control (mortality, anti-feedant effect or growth inhibition) at 200 ppm [1, 12] | percent control (mortality, anti-feedancy or growth inhibition) at 12.5 ppm [7] | percent effect (mortality or growth inhibition) at 200 ppm [2, 13] | percent effect (mortality or growth inhibition) at 200 ppm [3] | mortality at 200 ppm [4] | mortality at 24 ppm [5] | mortality at 200 ppm [6] | mortality at 200 ppm [8] | mortality at 200 ppm [11] | mortality at 200 ppm [10]

C=C(c1cnc(-c2nc3cc(C(F)(F)F)ncc3n2C)c(S(=O)(=O)CC)c1)C(F)(F)F [P17, 2-[3-ethylsulfonyl-5-[1-(trifluoromethyl)vinyl]-2-pyridyl]-3-methyl-6-(trifluoromethyl)imidazo[4,5-c]pyridine]
≥ 80%: percent effect (mortality or growth inhibition) at 200 ppm [3]
